Consider 25 molecules from ChEMBL document CHEMBL6134826, “Cross-subclass metallo-β-lactamase inhibitors: From structural and catalytic commonalities guiding design” (Eur J Med Chem, 2025).

Assay [1] deals with Bacteria. The assay can be described thus: Inhibition of L1 (unknown origin) at 100 uM relative to control.
In assay [2] the target is Metallo-beta-lactamase type 2 (Bacteria) (UniProt C7C422). The assay can be described thus: Inhibition of NDM-1 (unknown origin) at 100 uM relative to control.
Chain of Metallo-beta-lactamase type 2 (Bacteria) (C7C422 whole entry): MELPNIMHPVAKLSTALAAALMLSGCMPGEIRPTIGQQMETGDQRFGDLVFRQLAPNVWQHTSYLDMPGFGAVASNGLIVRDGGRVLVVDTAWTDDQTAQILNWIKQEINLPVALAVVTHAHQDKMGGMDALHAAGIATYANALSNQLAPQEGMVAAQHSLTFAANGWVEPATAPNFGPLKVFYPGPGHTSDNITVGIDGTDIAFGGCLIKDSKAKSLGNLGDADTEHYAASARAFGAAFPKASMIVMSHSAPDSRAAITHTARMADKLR
Assay [3] concerns the target T1, Metallo-beta-lactamase type 2 (Bacteria, UniProt C7C422). The assay can be described thus: Inhibition of NDM-1 (unknown origin) using nitrocefin as substrate by colorimetric assay.
The test system of assay [4] is Bacteria. Description: Inhibition of IMP-1 (unknown origin) at 100 uM relative to control.
Assay [5] can be described thus: Binding affinity to VIM-2 (unknown origin) assessed as inhibition constant. More on the design: species or system Bacteria.
Assay [6] can be described thus: Inhibition of Sfh-1 (unknown origin). More on the design: species or system Bacteria.
Assay [7] in a line: Binding affinity to L1 (unknown origin) assessed as inhibition constant. More on the design: species or system Bacteria.
The nature of assay [8]: Inhibition of L1 (unknown origin). More on the design: species or system Bacteria.
Assay [9] can be described thus: Inhibition of CphA (unknown origin). On the set-up: species or system Bacteria.
Assay [10] has as its target T1, Metallo-beta-lactamase type 2. The assay can be described thus: Inhibition of NDM-1 (unknown origin)using fluorescent cephalosporin as substrate preincubated for 10 mins followed by substrate addition by fluorescence based assay.
The nature of assay [11]: Inhibition of IMP-1 (unknown origin). On the set-up: species or system Bacteria.
The nature of assay [12]: Inhibition of ImiS (unknown origin). More on the design: species or system Bacteria.
Assay [13] has as its target T1, Metallo-beta-lactamase type 2. The assay can be described thus: Binding affinity to NDM-1 (unknown origin) assessed as inhibition constant.
Assay [14] in a line: Binding affinity to Sfh-1 (unknown origin) assessed as inhibition constant. More on the design: species or system Bacteria.
Assay [15] in a line: Inhibition of BcII (unknown origin). On the set-up: species or system Bacteria.
Assay [16] has as its target T1, Metallo-beta-lactamase type 2. Description: Inhibition of NDM-1 (unknown origin).
Assay [17] in a line: Binding affinity to BcII (unknown origin) assessed as inhibition constant. More on the design: species or system Bacteria.
Assay [18] can be described thus: Binding affinity to IMP-1 (unknown origin) assessed as inhibition constant. More on the design: species or system Bacteria.
The nature of assay [19]: Inhibition of recombinant VIM-2 (unknown origin). More on the design: species or system Bacteria.

The inhibition is the share of the control response that was lost under treatment. A high value points to a strong effect. By IC50 is commonly meant the midpoint of a concentration-inhibition curve. A word on the Ki: it is the equilibrium dissociation constant of an inhibitor or competing ligand from its target.

T1 sequence (C7C422 whole entry): as above

In the case of `O=C(O)C(=O)CBr` [BROMOPYRUVATE], the inhibition turned out to be 33.3% in the assay with Bacteria [1] and 90.9% in [2]. The same molecule had an IC50 in assay [3] of 2.57 µM.

On to `CC(=O)OC1C2CCC(C(=O)O)N2P1(=O)O` (centres undefined), for which the inhibition in the assay on Bacteria [1] and in the assay on Bacteria [4] was 70% each time.

Regarding `O=C(O)[C@@H]1CS[C@H]2CS[C@H](CS)N21`, the inhibitory constant (Ki) in assay [5] was 2.9 µM; in assay [7], 12 µM. The molecule also came in with an IC50 in [6] of 0.26 µM.

On to `CC(C)c1cccc2c(-c3cc(Cl)cc(Cl)c3)c(C(=O)O)[nH]c12`, for which the IC50 in assay [8] was determined as 0.501 µM; in assay [9], 0.63 µM.

Take `CC(C)c1cccc2c(-c3ccc(CS(C)(=O)=O)c(Cl)c3)c(C(=O)O)[nH]c12`: the figures for the IC50 in assay [8], in assay [10] and in assay [9] were 0.0501 µM, 0.00126 µM and 1.26 µM, respectively.

As to `O=C(CCn1[se]c2ccccc2c1=O)ON1C(=O)CCC1=O`, the IC50 in [11] was determined as 0.53 µM; in assay [3], 0.045 µM; in assay [12], 7.65 µM.

On to `O=c1c2ccccc2[se]n1-c1ccccc1` [EBSELEN], for which the IC50 in assay [11] worked out at 1.59 µM; in assay [3] it was 0.072 µM.

With `CC1(C)S[C@H]2CS[C@H](CS)N2[C@@H]1C(=O)O`, the Ki amounted to 6 µM in [5] and 11 µM in assay [7]. Besides, in assay [6], the midpoint of inhibition, the IC50, lay at 0.36 µM.

Consider `CCOC(=O)[C@]1(CS)N[C@H](C(=O)O)C(C)(C)S1`, for which the IC50 in assay [8] came out at 28 µM; in assay [6] it was 100 µM. In assay [13], the inhibition constant (Ki) was 8 µM.

For the molecule `C[C@]1(Cn2ccnn2)[C@H](C(=O)O)N2C(=O)C[C@H]2S1(=O)=O` [TAZOBACTAM], the figures for the Ki in assay [14] and in assay [5] were 62.2 µM and 128 µM, respectively.

In the case of `CC(C)c1cccc2c(-c3ccc(Cn4cncn4)cc3)c(C(=O)O)[nH]c12`, the IC50 was found to be 5.01 µM in assay [8], 0.00158 µM in assay [10] and 0.398 µM in assay [9].

Consider `O=C(N[C@@H](C(=O)O)c1ccc(Cn2cnnn2)s1)[C@@H](S)CCc1ccccc1`, for which the IC50 is 0.09 µM in assay [11] and 0.5 µM in assay [8].

For `CCN(CC)c1ccc2c(-c3ccccc3C(=O)OCCn3[se]c4ccccc4c3=O)c3ccc(N(CC)CC)cc3[o+]c2c1`, the IC50 in [11] amounted to 0.46 µM; in assay [3] it was 0.016 µM; in assay [12] it was 8.62 µM.

For `CCN(CC)C(=S)SSC(=S)N(CC)CC` [DISULFIRAM], the IC50 in assay [11] amounted to 2.9 µM; in assay [3], 0.13 µM; in [12] it was 3.6 µM.

For `CC1(C)[C@H](C(=O)O)N2C(=O)[C@@H](CS)[C@H]2S1(=O)=O`, the 50% inhibitory concentration (IC50) in assay [8] was 0.1 µM; in [15] it was 1.4 µM.

As to `CCOC(=O)[C@]1(CS)N[C@H](C(=O)O)CS1`, the IC50 in [8] worked out at 20 µM; in assay [6] it was 1.3 µM. In addition, the Ki in [13] came out at 0.44 µM.

Consider `CCN(CC)c1ccc2cc(C(=O)NCCC[Se]C#N)c(=O)oc2c1`, for which the IC50 is 0.12 µM in assay [11], 0.081 µM in assay [3] and 0.56 µM in assay [12].

Consider `CC1(C)[C@H](C(=O)O)N2C(=O)[C@H](CS)[C@H]2S1(=O)=O`, for which the half-inhibitory concentration (IC50) came out at 0.3 µM in assay [8] and 12 µM in assay [15].

For the molecule `O=C(O)c1cccc2c1OB(O)[C@@H](NC(=O)C1CCCCC1)C2`, the IC50 in [16] stood at 2.04 µM; in assay [9] it was 4.42 µM.

Turning to `SCC1SCC2Nc3ccccc3N21` (centres undefined), the IC50 stood at 0.62 µM in assay [8] and 1.4 µM in assay [6]. Moreover, the Ki in assay [13] turned out to be 77 µM.

Regarding `O=C(O)c1cccc2c1OB(O)C(SCc1ccccc1)C2` (centres undefined), the concentration for half-maximal inhibition (IC50) in [8] worked out at 5.01 µM; in assay [9] it was 0.501 µM.

For `O=C(CCn1[se]c2ccccc2c1=O)Oc1ccc2ccc(=O)oc2c1`, the IC50 in [11] is 0.97 µM; in assay [3], 0.025 µM; in assay [12], 12.5 µM.

`C[C@H](NC(=O)CCS)C(=O)O`: the Ki came to 6.5 µM in assay [7], 5.6 µM in [17] and 68 µM in [18].

As to `CNCc1ccc([C@@H]2C[C@@H](SC3=C(C(=O)O)N4C(=O)[C@H]([C@@H](C)O)[C@H]4[C@H]3C)CN2)cc1`, the Ki in assay [18] worked out at 0.18 µM.

For the molecule `NCCN[C@H]1CC[C@H](CC(=O)N[C@H]2Cc3cccc(C(=O)O)c3OB2O)CC1`, the values for the 50% inhibitory concentration (IC50) in assay [8], in [9] and in assay [19] were more than 10 µM, 2.51 µM and 0.005 µM, respectively.
